Reference: patent US12052991B2, “Substituted pyridinyloxybenzenes and salts thereof and use thereof as herbicidal agents” (Bayer Aktiengesellschaft, priority 2018, dated 2024)

Experiments:
Assay type in all cases: in vivo
[1] = system: Digitaria sanguinalis (DIGSA); assay: Herbicidal pre-emergence action, test C (Table C10); conditions: visual scoring after about 3 weeks, 100% = plants have died, 0% = like control plants
Outline: (§1)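 Visual percentage damage relative to untreated pots (0% = like control, 100% = dead) was rated roughly 3 weeks after pre-emergence treatment in the greenhouse. Sandy loam pots were sown with weed seeds and covered with soil. The surface was sprayed with WP or EC formulations plus 0.5% additive at 600 L/ha, delivering 1280 or 320 g/ha.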

[2] = system: Stellaria media (STEME); assay: Herbicidal post-emergence action (Table B8); conditions: visual rating about 3 weeks after treatment, 100% = plants have died, 0% = like control plants
Outline: (§2)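 Activity was scored visually against untreated plants roughly 3 weeks after treatment, 0% meaning like control and 100% plant death. Application was post-emergence onto green parts at the one-leaf stage, as aqueous suspension/emulsion with 0.5% additive, 600 l/ha, delivering 1280 or 320 g/ha to greenhouse plants in sandy loam.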

[3] = system: harmful plants ABUTH, AMARE, ECHCG, LOLRI, MATIN, POAAN, SETVI, STEME, ALOMY, DIGSA, KCHSC and VERPE; assay: Herbicidal pre-emergence action (test C), summary of Tables C1-C12; conditions: application rate of 1280 or 320 g of active ingredient per hectare; summary in words
Outline: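 Visual % damage versus untreated plants (0% = like control, 100% = died) was scored after about 3 weeks in the greenhouse. Before emergence, seeds sown in sandy loam got a soil-surface spray of compound as WP or EC plus 0.5% additive, using 600 L/ha water at rates of 1280 or 320 g/ha.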

[4] = system: Bassia scoparia (KCHSC); assay: Herbicidal pre-emergence action, test C (Table C11); conditions: dosage 1280 g/ha, visual scoring vs untreated controls
Description: (§3) Seeds of mono- and dicotyledonous weed plants were placed in plastic pots in sandy loam soil (doubly sown with one species each of mono- or dicotyledonous weed plants per pot) and covered with soil. The compounds of the invention, formulated in the form of wettable powders (WP) or as emulsion concentrates (EC), were then applied onto the surface of the covering soil as aqueous suspension or emulsion with addition of 0.5% additive at a water application rate of 600 liters per hectare (converted). After the treatment, the pots were placed in a greenhouse and kept under good growth conditions for the test plants. After about 3 weeks, the effect of the preparations was scored visually in comparison with untreated controls as percentages. For example, 100% activity=the plants have died, 0% activity=like control plants. Tables C1 to C12 below show the effects of selected compounds of the general formula (I) according to Table 1 on various harmful plants and an application rate corresponding to 1280 or 320 g/ha, which were obtained by the experimental procedure mentioned above.

[5] = system: Amaranthus retroflexus (AMARE); assay: Herbicidal post-emergence action (Table B6); conditions: visual rating about 3 weeks after treatment, 100% = plants have died, 0% = like control plants
Outline: as §2

[6] = system: Veronica persica (VERPE); assay: Herbicidal pre-emergence action, test C (Table C12); conditions: visual scoring vs untreated controls
Outline: as §1

[7] = system: Stellaria media (STEME); assay: Herbicidal pre-emergence action, test C (Table C8); conditions: visual scoring after about 3 weeks, 100% = plants have died, 0% = like control plants
Outline: as §1

[8] = system: Poa annua (POAAN); assay: Herbicidal post-emergence action (Table B3); conditions: rated visually after about 3 weeks, 100% = plants have died, 0% = like control plants
Outline: as §2

[9] = system: harmful plants ABUTH, AMARE, ECHCG, LOLRI, MATIN, POAAN, SETVI, STEME, ALOMY, DIGSA, KCHSC and VERPE; assay: Herbicidal post-emergence action, summary of Tables B1-B12; conditions: application rate of 1280 or 320 g of active ingredient per hectare; summary in words
Outline: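 Activity scored by eye roughly 3 weeks post-treatment against untreated plants, from 0% (no effect) to 100% (plants dead). Application rates were 1280 or 320 g/ha, as aqueous WP/EC spray plus 0.5% additive at 600 L/ha, onto one-leaf-stage weeds grown 2–3 weeks in sandy loam.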

[10] = system: Veronica persica (VERPE); assay: Herbicidal post-emergence action (Table B12); conditions: visual rating about 3 weeks after treatment, 100% = plants have died, 0% = like control plants
Outline: as §2

[11] = system: Bassia scoparia (KCHSC); assay: Herbicidal post-emergence action (Table B11); conditions: visual rating about 3 weeks after treatment, 100% = plants have died, 0% = like control plants
Outline: as §2

[12] = system: Abutilon theophrasti (ABUTH); assay: Herbicidal pre-emergence action, test C (Table C5); conditions: visual scoring after about 3 weeks, 100% = plants have died, 0% = like control plants
Outline: as §1

[13] = system: Abutilon theophrasti (ABUTH); assay: Herbicidal post-emergence action (Table B5); conditions: rated visually after about 3 weeks, 100% = plants have died, 0% = like control plants
Outline: as §2

[14] = system: Poa annua (POAAN); assay: Herbicidal pre-emergence action, test C (Table C3); conditions: visual scoring after about 3 weeks, 100% = plants have died, 0% = like control plants
Outline: as §1

[15] = system: Amaranthus retroflexus (AMARE); assay: Herbicidal pre-emergence action, test C (Table C6); conditions: visual scoring after about 3 weeks, 100% = plants have died, 0% = like control plants
Outline: as §1

[16] = system: Setaria viridis (SETVI); assay: Herbicidal pre-emergence action, test C (Table C4); conditions: visual scoring after about 3 weeks, 100% = plants have died, 0% = like control plants
Outline: as §1

[17] = system: Matricaria inodora (MATIN); assay: Herbicidal pre-emergence action, test C (Table C7); conditions: visual scoring after about 3 weeks, 100% = plants have died, 0% = like control plants
Outline: as §1

[18] = system: Echinochloa crus-galli (ECHCG); assay: Herbicidal post-emergence action (Table B1); conditions: 1280 g/ha; rated visually after about 3 weeks; 100% = plants have died, 0% = like control plants
Description: (§4) Seeds of mono- and dicotyledonous weed plants were placed in plastic pots in sandy loam soil (doubly sown with in each case one species of mono- or dicotyledonous weed plants per pot), covered with soil and cultivated in a greenhouse under controlled growth conditions. 2 to 3 weeks after sowing, the test plants were treated at the one-leaf stage. The compounds of the invention, formulated in the form of wettable powders (WP) or as emulsion concentrates (EC), were applied onto the green parts of the plants as aqueous suspension or emulsion with addition of 0.5% additive at a water application rate of 600 liters per hectare (converted). After the test plants had been kept in the greenhouse under optimum growth conditions for about 3 weeks, the activity of the preparations was rated visually in comparison to untreated controls. For example, 100% activity=the plants have died, 0% activity=like control plants. Tables B1 to B12 below show the effects of selected compounds of the general formula (I) according to Table 1 on various harmful plants and an application rate corresponding to 1280 or 320 g/ha, which were obtained by the experimental procedure mentioned above.

[19] = system: Alopecurus myosuroides (ALOMY); assay: Herbicidal pre-emergence action, test C (Table C9); conditions: visual scoring after about 3 weeks, 100% = plants have died, 0% = like control plants
Description: as §3

[20] = system: Digitaria sanguinalis (DIGSA); assay: Herbicidal post-emergence action (Table B10); conditions: visual rating about 3 weeks after treatment, 100% = plants have died, 0% = like control plants
Description: as §4

[21] = system: Lolium rigidum (LOLRI); assay: Herbicidal pre-emergence action, test C (Table C2); conditions: dosage 1280 g/ha; visual scoring after about 3 weeks; 100% = plants have died, 0% = like control plants
Description: as §3

[22] = system: Alopecurus myosuroides (ALOMY); assay: Herbicidal post-emergence action (Table B9); conditions: rated visually after about 3 weeks, 100% = plants have died, 0% = like control plants
Description: as §4

[23] = system: Echinochloa crus-galli (ECHCG); assay: Herbicidal pre-emergence action, test C (Table C1); conditions: dosage 1280 g/ha; visual scoring after about 3 weeks; 100% = plants have died, 0% = like control plants
Description: as §3

Row | Compound | Pre-emergence action against Digitaria sanguinalis (DIGSA) ([1]; dosage 1280 g/ha) [%] | Post-emergence action against Stellaria media (STEME) ([2]; dosage 320 g/ha) [%] | Post-emergence action against Stellaria media (STEME) ([2]; dosage 1280 g/ha) [%] | herbicidal activity against the harmful plants of Tables C1-C12 in pre-emergence treatment [3] | Post-emergence action against Amaranthus retroflexus (AMARE) ([5]; dosage 1280 g/ha) [%] | Pre-emergence action against Veronica persica (VERPE) ([6]; dosage 1280 g/ha) [%] | Pre-emergence action against Stellaria media (STEME) ([7]; dosage 1280 g/ha) [%] | Post-emergence action against Poa annua (POAAN) ([8]; 320 g/ha) [%] | Post-emergence action against Poa annua (POAAN) ([8]; 1280 g/ha) [%] | herbicidal activity against the harmful plants of Tables B1-B12 in post-emergence treatment [9] | Post-emergence action against Veronica persica (VERPE) ([10]; dosage 320 g/ha) [%] | Post-emergence action against Veronica persica (VERPE) ([10]; dosage 1280 g/ha) [%] | Post-emergence action against Bassia scoparia (KCHSC) ([11]; dosage 1280 g/ha) [%] | Pre-emergence action against Abutilon theophrasti (ABUTH) ([12]; dosage 1280 g/ha) [%] | Post-emergence action against Abutilon theophrasti (ABUTH) ([13]; 320 g/ha) [%] | Post-emergence action against Abutilon theophrasti (ABUTH) ([13]; 1280 g/ha) [%] | Pre-emergence action against Poa annua (POAAN) ([14]; dosage 320 g/ha) [%] | Pre-emergence action against Poa annua (POAAN) ([14]; dosage 1280 g/ha) [%] | Pre-emergence action against Amaranthus retroflexus (AMARE) ([15]; dosage 320 g/ha) [%] | Pre-emergence action against Amaranthus retroflexus (AMARE) ([15]; dosage 1280 g/ha) [%] | also measured
1 | Cn1nc(-c2c(F)cccc2Oc2ncc(Cl)cc2F)cc1C(F)F [Example 1-61] | 100 | 100 | 100 | very good herbicidal activity | 100 | 100 | 100 | 100 | 100 | very good herbicidal activity | 100 | 100 | 100 | 100 | 100 | 100 | 90 | 100 | 100 | 100 | Pre-emergence action against Bassia scoparia (KCHSC) [4]: 100%; Post-emergence action against Amaranthus retroflexus (AMARE) ([5]; dosage 320 g/ha): 100%; Post-emergence action against Bassia scoparia (KCHSC) ([11]; dosage 320 g/ha): 100%; Pre-emergence action against Setaria viridis (SETVI) ([16]; dosage 1280 g/ha): 90%
2 | Cc1cccc(Oc2ncc(Cl)cc2F)c1-c1cc(C(F)F)on1 [Example 1-10] | 100 | 100 | 100 | very good herbicidal activity | 100 | 100 | 100 | 100 | 100 | very good herbicidal activity | 100 | 100 | 100 | 100 | 90 | 100 | 100 | 100 | 100 | 100 | Pre-emergence action against Digitaria sanguinalis (DIGSA) ([1]; dosage 320 g/ha): 100%; Pre-emergence action against Matricaria inodora (MATIN) ([17]; dosage 320 g/ha): 100%; Pre-emergence action against Matricaria inodora (MATIN) ([17]; dosage 1280 g/ha): 100%; Pre-emergence action against Veronica persica (VERPE) ([6]; dosage 320 g/ha): 100%; Pre-emergence action against Stellaria media (STEME) ([7]; dosage 320 g/ha): 100%; Post-emergence action against Echinochloa crus-galli (ECHCG) [18]: 100%; Pre-emergence action against Alopecurus myosuroides (ALOMY) ([19]; dosage 320 g/ha): 100%; Pre-emergence action against Alopecurus myosuroides (ALOMY) ([19]; dosage 1280 g/ha): 100%; Post-emergence action against Digitaria sanguinalis (DIGSA) ([20]; dosage 320 g/ha): 100%; Post-emergence action against Digitaria sanguinalis (DIGSA) ([20]; dosage 1280 g/ha): 100%; Pre-emergence action against Abutilon theophrasti (ABUTH) ([12]; dosage 320 g/ha): 100%; Pre-emergence action against Lolium rigidum (LOLRI) [21]: 90%; Post-emergence action against Alopecurus myosuroides (ALOMY) ([22]; 320 g/ha): 100%; Post-emergence action against Alopecurus myosuroides (ALOMY) ([22]; 1280 g/ha): 100%; Pre-emergence action against Setaria viridis (SETVI) ([16]; dosage 320 g/ha): 100%; Pre-emergence action against Setaria viridis (SETVI) ([16]; dosage 1280 g/ha): 100%; Pre-emergence action against Echinochloa crus-galli (ECHCG) [23]: 90%
